The text below walks through data of ChEMBL document CHEMBL2040735, “Synthesis, benzodiazepine receptor binding and molecular modelling of isochromeno[4,3-c]pyrazol-5(1H)-one derivatives” (Eur J Med Chem, 2012).

A word on the inhibition: it is how much of the control response was suppressed. A high value points to a response far below the control.

The species named for the first experiment is Bos taurus. The conditions noted are these: Brain, Membrane, 1 uM.
Description: Displacement of [3H]flunitrazepam from benzodiazepine receptor in bovine brain membrane at 1 uM by liquid scintillation counting
Consider `CN1C(=O)CN=C(c2ccccc2)c2cc(Cl)ccc21`, for which the inhibition stood at 98%.

Another experiment is filed under the species Bos taurus. Briefly: Displacement of [3H]flunitrazepam from benzodiazepine receptor in bovine brain membrane at 10 uM by liquid scintillation counting. In kind it is cell membranes.
Conditions: not given
`Cc1nn(-c2cccc(Cl)c2)c2c1c(=O)oc1ccccc12` gave an inhibition of 86%.

As to `Cc1nn(-c2ccccc2)c2c1oc(=O)c1ccc(Cl)cc12`, the inhibition stood at 35%.

As for `Cc1ccc2c(c1)c(=O)oc1c(C)nn(-c3ccccc3)c12`, the inhibition was determined as 6%. With `Cc1cccc(-n2nc(C)c3c(=O)oc4ccccc4c32)c1`, the inhibition worked out at 78%. As to `Cc1nn(-c2ccccc2)c2c1c(=O)oc1ccccc12`, the inhibition came out at 76%. In turn, `O=c1oc2c(-c3ccccc3)nn(-c3ccccc3)c2c2ccccc12` gave an inhibition of 5%. On to `Cc1nn(-c2cccc(Cl)c2)c2c1oc(=O)c1ccccc12`, for which the inhibition came to 28%. On to `Cc1cccc(-n2nc(C)c3oc(=O)c4ccccc4c32)c1`, for which the inhibition amounted to 40%.

For the compound `Cc1ccc(-n2nc(C)c3c(=O)oc4ccccc4c32)cc1`, the inhibition is 66%. With `Cc1nn(-c2ccccc2)c2c1oc(=O)c1ccccc12`, the inhibition came to 20%. Same read-out and setting: the value for `Cc1nn(-c2ccccc2)c2c1oc(=O)c1cc(Cl)ccc12` was 0%. The compound `O=c1oc2ccccc2c2c1c(-c1ccccc1)nn2-c1ccccc1` had an inhibition of 10%. With `Cc1ccc(-n2nc(C)c3oc(=O)c4ccccc4c32)cc1`, the inhibition stood at 13%. Still for that read-out and setting: the value for `O=c1oc2cnn(-c3ccccc3)c2c2ccccc12` was 54%.
